Here are results for 2 compounds from patent US10004678B2, “Anti-dandruff compositions, and methods of use thereof” (LUCAS MEYER COSMETICS CANADA INC., priority 2013, dated 2018).

Holding throughout (assay type): cell-based
Common to all, as to conditions: w/v concentration, 0.25% is 2.5 g (dry weight)/L

Experiment [1] concerns M. furfur (strain 1634.86, Pasteur Institute). Kind of experiment: Malassezia species growth inhibition (MIC), M. furfur. The protocol:
(§1) Determination of the effectiveness of the solution prepared as described in Example 1 on 3 different Malassezia species was determined by measuring the lowest concentration of a molecule for which there is no visible growth of the microorganism strain (MIC). The Malassezia species used were M. furfur (strain 1634.86, Pasteur Institute), M. globose (strain IP 2387.96, Pasteur Institute), and M. restricta (strain 7877, Centralbureau voor Schimmerlcultures). Results are presented as a w/v concentration—i.e., 0.04% is 0.4 g/L; 0.078% is 0.78 g/L, 0.156% is 1.56 g/L and 0.25% is 2.5 g (dry weight)/L.

The subject of experiment [2] is M. globosa (strain IP 2387.96, Pasteur Institute). As to the kind of experiment: Malassezia species growth inhibition (MIC), M. globosa. As for the experimental part:
as §1

Experiment [3] deals with M. restricta (strain 7877, Centralbureau voor Schimmerlcultures). Kind of experiment: Malassezia species growth inhibition (MIC), M. restricta. As for the experimental part:
as §1

SMILES strings stand for the structures.

As to `S=[Se]=S` [Selenium disulfide], the “MIC (lowest concentration with no visible growth)” value in experiment [1], in experiment [2] and in experiment [3] was 0.04% throughout.
Regarding `Cc1cc(CC(C)CC(C)(C)C)n(O)c(=O)c1.NCCO` (stereo not drawn) [Piroctone olamine], the figures for the “MIC (lowest concentration with no visible growth)” value in experiment [1], in experiment [2] and in experiment [3] were 0.078%, 0.156% and 0.156%, respectively.
